Source: patent US20250188094A1, “PYRAZOLE MEMBRANE-ASSOCIATED TYROSINE-AND THREONINE-SPECIFIC CDC2-INHIBITORY KINASE (PKMYT1) INHIBITORS AND USES THEREOF” (Insilico Medicine IP Limited, priority 2022, published 2025)

Key:
PKMYT1 = PKMYT1 (Homo sapiens (Human), UniProt Q99640); assay: PKMYT1 HTRF Assay; format: binding; details: Tracer 178, GST-Tb, read-out: MYT1 HTRF IC50
Procedure: Example A: PKMYT1 HTRF Assay
Compound serial dilution was performed by Echo, and the final concentrations vary from 10 μM to 0.5 nM. This was filled by the addition of 5 μL/well of Enzyme solution to the assay plate containing the compound. The plate was centrifuged at 1000 rpm for 1 minute, and incubate 15 minutes at 25° C. Then 5 μL/well of tracer solution (Tracer 178) was added to initiate the reaction, and incubate for 60 minutes at 25° C. Next 5 μL GST-Tb was added into the assay plate, the plate was centrifuged at 1000 rpm for 1 minute, and incubate for 15 minutes at 25° C. The assay plate was read on Envision.

WEE1 = WEE1 (Homo sapiens (Human), UniProt P30291); assay: WEE1 ADP-Glo Assay; format: biochemical; details: luminescence
Sequence of WEE1 (P30291 whole entry, species assumed): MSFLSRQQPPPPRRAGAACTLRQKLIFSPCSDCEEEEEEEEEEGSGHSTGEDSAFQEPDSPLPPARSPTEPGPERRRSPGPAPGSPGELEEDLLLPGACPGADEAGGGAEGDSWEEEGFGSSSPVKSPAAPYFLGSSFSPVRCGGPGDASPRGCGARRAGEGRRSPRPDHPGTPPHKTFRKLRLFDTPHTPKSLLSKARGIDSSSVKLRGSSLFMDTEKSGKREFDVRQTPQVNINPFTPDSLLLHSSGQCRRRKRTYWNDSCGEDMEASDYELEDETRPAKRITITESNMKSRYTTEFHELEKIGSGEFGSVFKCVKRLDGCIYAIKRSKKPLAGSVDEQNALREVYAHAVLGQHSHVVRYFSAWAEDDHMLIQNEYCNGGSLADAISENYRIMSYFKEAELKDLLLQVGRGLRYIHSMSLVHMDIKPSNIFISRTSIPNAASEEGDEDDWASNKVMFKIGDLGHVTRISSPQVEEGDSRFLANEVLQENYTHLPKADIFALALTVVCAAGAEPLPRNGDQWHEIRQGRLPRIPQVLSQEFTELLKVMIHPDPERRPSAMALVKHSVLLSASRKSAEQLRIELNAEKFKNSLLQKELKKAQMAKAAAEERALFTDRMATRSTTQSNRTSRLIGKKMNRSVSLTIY
Procedure: Example B: WEE1 ADP-Glo Assay
Compound serial dilution is performed by Echo, and the final concentrations vary from 10 μM to 0.5 nM. This was filled by the addition of 5 μL/well of Enzyme solution to the assay plate containing the compound. The plate was centrifuged at 1000 rpm for 1 minute, and incubate 15 minutes at 25° C. Then 5 μL/well of substrate solution was added to initiate the reaction, and incubate for 60 minutes at 25° C. Next 10 μL kinase detection reagent was added into the assay plate, the plate was centrifuged at 1000 rpm for 1 minute, and incubate for 60 minutes at 25° C. The assay plate was read on Envision for US LUM as RLU.

Sequence of PKMYT1 (Q99640 whole entry, species assumed): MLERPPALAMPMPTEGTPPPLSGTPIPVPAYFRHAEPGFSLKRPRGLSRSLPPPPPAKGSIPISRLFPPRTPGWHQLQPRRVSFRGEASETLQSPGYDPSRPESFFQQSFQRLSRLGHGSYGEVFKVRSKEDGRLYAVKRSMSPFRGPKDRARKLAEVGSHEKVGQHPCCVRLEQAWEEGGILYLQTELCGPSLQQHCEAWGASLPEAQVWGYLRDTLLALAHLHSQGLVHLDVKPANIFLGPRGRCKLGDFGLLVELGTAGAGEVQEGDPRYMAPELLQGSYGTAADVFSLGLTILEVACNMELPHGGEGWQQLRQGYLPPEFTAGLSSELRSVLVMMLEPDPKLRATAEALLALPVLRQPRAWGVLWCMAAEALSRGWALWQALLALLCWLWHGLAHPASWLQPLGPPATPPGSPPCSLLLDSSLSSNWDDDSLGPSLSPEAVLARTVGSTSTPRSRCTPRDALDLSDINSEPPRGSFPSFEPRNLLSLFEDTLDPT

Compound | IC50 (PKMYT1) | IC50 (WEE1)
Cc1cnc(-c2nn(-c3c(C)ccc(O)c3C)c(N)c2C(N)=O)s1 [Example 5, 5-amino-1-(3-hydroxy-2,6-dimethylphenyl)-3-(5-methylthiazol-2-yl)-1H-pyrazole-4-carboxamide] | < 10 nM | 
Cc1ccc(O)c(C)c1-n1nc(-c2ccn(CC(C)(C)O)n2)c(C(N)=O)c1N [Example 8, 5-amino-1-(3-hydroxy-2,6-dimethylphenyl)-1′-(2-hydroxy-2-methylpropyl)-1H,1′H-[3,3′-bipyrazole]-4-carboxamide] | 50 to 500 nM | > 5000 nM
Cc1ccc(O)c(C)c1-n1nc(-c2ncc3n2CCCC3)c(C(N)=O)c1N [Example 11, 5-amino-1-(3-hydroxy-2,6-dimethylphenyl)-3-(5,6,7,8-tetrahydroimidazo[1,5-a]pyridin-3-yl)-1H-pyrazole-4-carboxamide] | 50 to 500 nM | 
Cc1ccc(O)c(C)c1-n1nc(-c2nccs2)c(C(N)=O)c1N [Example 2, 5-amino-1-(3-hydroxy-2,6-dimethylphenyl)-3-(thiazol-2-yl)-1H-pyrazole-4-carboxamide] |  | 50 to 500 nM
Cc1ccc(O)c(C)c1-n1nc(-c2ccn(C(F)F)n2)c(C(N)=O)c1N [Example 9, 5-amino-1′-(difluoromethyl)-1-(3-hydroxy-2,6-dimethylphenyl)-1H,1′H-[3,3′-bipyrazole]-4-carboxamide] | < 10 nM | 50 to 500 nM
Cc1ccc(O)c(C)c1-n1nc(-c2nc(C(F)(F)F)cs2)c(C(N)=O)c1N [Example 3, 5-amino-1-(3-hydroxy-2,6-dimethylphenyl)-3-(4-(trifluoromethyl)thiazol-2-yl)-1H-pyrazole-4-carboxamide] | < 10 nM | 50 to 500 nM
Cc1ccc(O)c(C)c1-n1nc(-c2nccs2)c(C(N)=O)c1N [Example 1, 5-amino-1-(3-hydroxy-2,6-dimethylphenyl)-3-(thiazol-2-yl)-1H-pyrazole-4-carboxamide] | < 10 nM | 50 to 500 nM
Cc1ccc(O)c(C)c1-n1nc(-c2ccc(C(F)(F)F)cn2)c(C(N)=O)c1N [Example 10, 5-amino-1-(3-hydroxy-2,6-dimethylphenyl)-3-(5-(trifluoromethyl)pyridin-2-yl)-1H-pyrazole-4-carboxamide] | 10 to 50 nM | 500 to 5000 nM
Cc1ccc(O)c(C)c1-n1nc(-c2nc3cnccc3s2)c(C(N)=O)c1N [Example 7, 5-amino-1-(3-hydroxy-2,6-dimethylphenyl)-3-(thiazolo[4,5-c]pyridin-2-yl)-1H-pyrazole-4-carboxamide] | 10 to 50 nM | 500 to 5000 nM
Cc1c(O)ccc(Cl)c1-n1nc(-c2nccs2)c(C(N)=O)c1N [Example 6, 5-amino-1-(6-chloro-3-hydroxy-2-methylphenyl)-3-(thiazol-2-yl)-1H-pyrazole-4-carboxamide] | < 10 nM | 50 to 500 nM
Cc1csc(-c2nn(-c3c(C)ccc(O)c3C)c(N)c2C(N)=O)n1 [Example 4, 5-amino-1-(3-hydroxy-2,6-dimethylphenyl)-3-(4-methylthiazol-2-yl)-1H-pyrazole-4-carboxamide] | < 10 nM | 
